Values belong to the compound of their own block, whether it stands above or below them.
Assays:
PDE4D7-S129D [1] = target: T1, PDE4D7-S129D (Homo sapiens, UniProt Q08499, S190D/S715A/S717A); assay: PDE4 coupled enzyme assay of cAMP hydrolysis, PDE4D7-S129D; assay type: biochemical; details: mean ± SD
PDE4B1-S133D = PDE4B1-S133D (Homo sapiens, UniProt Q07343, S133D/S659A/S661A); assay: PDE4 coupled enzyme assay of cAMP hydrolysis, PDE4B1-S133D; assay type: biochemical; details: mean ± SD
PDE4D7-S129(wt) = PDE4D7-S129(wt) (Homo sapiens, UniProt Q08499, S715A/S717A); assay: PDE4 coupled enzyme assay of cAMP hydrolysis, PDE4D7-S129; assay type: biochemical; details: mean ± SD
PDE4D3-S54D = PDE4D3-S54D (Homo sapiens, UniProt Q08499, S190D/S715A/S717A); assay: PDE4 coupled enzyme assay of cAMP hydrolysis, PDE4D3-S54D; assay type: biochemical; details: mean ± SD
PDE4D2 = PDE4D2 (Homo sapiens, UniProt Q08499, S715A/S717A); assay: PDE4 coupled enzyme assay of cAMP hydrolysis, PDE4D2; assay type: biochemical; details: mean ± SD
PDE4D-cat = PDE4D-cat (Homo sapiens, UniProt Q08499, S715A/S717A); assay: PDE4 coupled enzyme assay of cAMP hydrolysis, PDE4D-cat; assay type: biochemical; details: mean ± SD
[2] = Liver microsome stability; assay type: in vitro ADME, dog, mouse, rat and monkey; details: human
mice [3] = assay: Mouse novel object recognition after 24-hour delay; assay type: in vivo, Male ICR mice; details: mouse NOR
mice [4] = assay: Anesthesia duration test; assay type: in vivo, Male ICR mice; details: mouse
PDE1-11 = assay: Counter assays against PDE1-11; assay type: biochemical; details: read-out: off target IC50 against PDE1-11; BPS Bioscience, all assays
rats [5] = assay: Safety pharmacology, CNS and pulmonary, rats; assay type: in vivo; details: up to a maximum oral dose of 60 mg/kg
dog = assay: Safety pharmacology, cardiovascular function, dog; assay type: in vivo; details: up to a maximum oral dose of 100 mg/kg
rats [6] = assay: Dose range finding toxicology, rats; assay type: in vivo; details: oral dose of 100 mg/kg
dogs = assay: Dose range finding toxicology, dogs; assay type: in vivo; details: 100 mg/kg
rats and dogs = assay: Toxicological studies of 28 and 90 days duration; assay type: in vivo
ferrets = assay: Emesis in ferrets; assay type: in vivo; details: oral doses up to 30 mg/kg
cynomolgus monkeys = assay: Emesis in cynomolgus monkeys; assay type: in vivo; details: oral doses up to 50 mg/kg
FMR1 knockout mice = details: cited from earlier work
humanized PDE4D mice = details: cited from earlier work
bacteria = assay: Mutagenicity in bacteria
[7] = Metabolite identification in human hepatocytes; assay type: in vitro ADME; details: compound 23 incubated 4 hour with human hepatocytes
[8] = Metabolite identification in rat hepatocytes; assay type: in vitro ADME, male Wistar rats; details: compound 23 incubated 4 hour with rat hepatocytes
Pharmacokinetics in mice = assay type: in vivo; details: oral
PDE4D7-S129D [9] = target: T1, PDE4D7-S129D; assay: PDE4D7-S129D inhibition in the presence of bovine serum albumin; details: bovine serum albumin at 1 mg/mL

T1 sequence (Q08499 1-748 isoform Q08499-11 S129D/S654A/S656A): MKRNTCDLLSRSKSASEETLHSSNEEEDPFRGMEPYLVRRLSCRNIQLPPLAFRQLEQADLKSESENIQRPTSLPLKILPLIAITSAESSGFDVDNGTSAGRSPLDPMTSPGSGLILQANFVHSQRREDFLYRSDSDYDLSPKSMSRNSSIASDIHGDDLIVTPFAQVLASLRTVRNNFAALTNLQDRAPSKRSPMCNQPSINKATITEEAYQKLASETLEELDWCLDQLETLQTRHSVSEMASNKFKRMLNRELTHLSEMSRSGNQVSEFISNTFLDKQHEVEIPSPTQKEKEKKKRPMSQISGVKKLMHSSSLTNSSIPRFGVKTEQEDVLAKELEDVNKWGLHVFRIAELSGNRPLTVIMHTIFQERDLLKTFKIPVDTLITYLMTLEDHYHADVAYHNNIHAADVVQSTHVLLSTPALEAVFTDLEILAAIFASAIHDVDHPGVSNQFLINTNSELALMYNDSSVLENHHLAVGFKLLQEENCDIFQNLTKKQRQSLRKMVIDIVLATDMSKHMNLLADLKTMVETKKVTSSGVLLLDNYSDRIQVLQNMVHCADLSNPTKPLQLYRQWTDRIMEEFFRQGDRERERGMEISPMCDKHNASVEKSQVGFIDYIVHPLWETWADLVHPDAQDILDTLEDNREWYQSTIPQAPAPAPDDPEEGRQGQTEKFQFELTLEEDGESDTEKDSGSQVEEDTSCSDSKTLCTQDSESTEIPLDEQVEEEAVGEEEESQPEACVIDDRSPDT
Chain of PDE4B1-S133D (Q07343 whole entry S133D/S659A/S661A): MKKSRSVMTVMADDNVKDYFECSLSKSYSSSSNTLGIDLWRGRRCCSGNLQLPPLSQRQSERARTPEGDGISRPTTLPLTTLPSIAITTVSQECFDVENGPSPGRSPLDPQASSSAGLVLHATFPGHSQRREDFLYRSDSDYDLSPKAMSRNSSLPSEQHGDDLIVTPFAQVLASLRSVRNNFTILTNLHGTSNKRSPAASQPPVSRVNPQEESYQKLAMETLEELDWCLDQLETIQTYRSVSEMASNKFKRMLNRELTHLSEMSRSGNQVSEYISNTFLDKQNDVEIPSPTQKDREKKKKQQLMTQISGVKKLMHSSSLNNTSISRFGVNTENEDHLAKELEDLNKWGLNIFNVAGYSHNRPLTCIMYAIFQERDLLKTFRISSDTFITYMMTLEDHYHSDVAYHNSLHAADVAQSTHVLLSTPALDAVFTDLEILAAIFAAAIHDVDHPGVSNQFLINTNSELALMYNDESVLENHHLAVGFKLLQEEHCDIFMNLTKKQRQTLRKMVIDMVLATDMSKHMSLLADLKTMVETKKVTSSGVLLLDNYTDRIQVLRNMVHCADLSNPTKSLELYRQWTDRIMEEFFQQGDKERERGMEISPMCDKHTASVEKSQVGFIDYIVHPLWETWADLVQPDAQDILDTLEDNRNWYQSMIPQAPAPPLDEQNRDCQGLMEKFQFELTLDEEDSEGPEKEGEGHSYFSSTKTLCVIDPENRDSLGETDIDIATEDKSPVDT
Chain of PDE4D7-S129(wt) (Q08499 1-748 isoform Q08499-11 S654A/S656A): as the sequence (Q08499 1-748 isoform Q08499-11 S129D/S654A/S656A) above, with D129S counted along it
Chain of PDE4D-cat (Q08499 380-743 S715A/S717A): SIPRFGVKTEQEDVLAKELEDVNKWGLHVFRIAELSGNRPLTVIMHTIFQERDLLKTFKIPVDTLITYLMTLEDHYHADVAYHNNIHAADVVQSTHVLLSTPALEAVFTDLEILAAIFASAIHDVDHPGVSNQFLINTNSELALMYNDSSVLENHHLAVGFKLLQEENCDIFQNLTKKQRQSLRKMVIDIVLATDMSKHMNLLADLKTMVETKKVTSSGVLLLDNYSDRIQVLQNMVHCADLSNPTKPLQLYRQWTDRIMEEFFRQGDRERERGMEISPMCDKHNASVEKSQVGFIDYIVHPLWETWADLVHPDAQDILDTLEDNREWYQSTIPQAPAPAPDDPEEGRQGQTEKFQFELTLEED
Chain of PDE4D2 (Q08499 303-809 S715A/S717A): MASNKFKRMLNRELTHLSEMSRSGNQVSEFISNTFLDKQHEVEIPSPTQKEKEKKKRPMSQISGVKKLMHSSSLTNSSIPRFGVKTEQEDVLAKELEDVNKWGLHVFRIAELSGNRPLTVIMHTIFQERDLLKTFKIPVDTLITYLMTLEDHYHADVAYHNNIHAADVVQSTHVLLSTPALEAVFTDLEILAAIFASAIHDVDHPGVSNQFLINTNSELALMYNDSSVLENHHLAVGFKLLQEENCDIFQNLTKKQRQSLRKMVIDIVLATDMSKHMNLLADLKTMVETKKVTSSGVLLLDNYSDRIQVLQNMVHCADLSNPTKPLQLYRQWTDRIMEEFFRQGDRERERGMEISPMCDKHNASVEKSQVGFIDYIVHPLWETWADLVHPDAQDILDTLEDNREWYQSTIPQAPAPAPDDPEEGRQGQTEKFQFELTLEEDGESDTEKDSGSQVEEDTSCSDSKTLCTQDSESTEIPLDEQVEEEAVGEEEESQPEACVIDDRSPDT
Chain of PDE4D3-S54D (Q08499 1-673 isoform Q08499-2 S54D/S579A/S581A): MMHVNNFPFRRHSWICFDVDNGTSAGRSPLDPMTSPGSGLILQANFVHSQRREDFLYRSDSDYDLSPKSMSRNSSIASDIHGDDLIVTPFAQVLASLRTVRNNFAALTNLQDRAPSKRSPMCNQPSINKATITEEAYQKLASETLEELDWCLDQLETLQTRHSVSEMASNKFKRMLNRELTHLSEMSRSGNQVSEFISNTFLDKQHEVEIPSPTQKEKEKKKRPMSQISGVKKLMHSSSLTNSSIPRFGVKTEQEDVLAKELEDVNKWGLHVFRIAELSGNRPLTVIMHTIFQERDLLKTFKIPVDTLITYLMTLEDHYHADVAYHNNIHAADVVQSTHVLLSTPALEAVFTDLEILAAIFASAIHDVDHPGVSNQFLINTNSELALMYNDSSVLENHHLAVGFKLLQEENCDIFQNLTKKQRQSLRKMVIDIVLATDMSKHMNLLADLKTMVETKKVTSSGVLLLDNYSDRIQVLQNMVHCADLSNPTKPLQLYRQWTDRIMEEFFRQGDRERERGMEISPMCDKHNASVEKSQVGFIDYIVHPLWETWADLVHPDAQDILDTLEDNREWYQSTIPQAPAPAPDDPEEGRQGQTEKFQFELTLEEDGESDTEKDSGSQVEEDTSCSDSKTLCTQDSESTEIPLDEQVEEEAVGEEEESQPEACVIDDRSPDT

SMILES: O=C(O)Cc1ccc(Cc2cc(-c3cccc(Cl)c3)nc(C(F)(F)F)c2)cc1 [Compound 28, 2-(4-((2-(3-chlorophenyl)-6-(trifluoromethyl)pyridin-4-yl)methyl)phenyl)acetic acid]
- Hill Slope PDE4D7-S129D dimer activated (PDE4D7-S129D [1]): 0.55± 0.12
- Hill Slope PDE4B1-S133D dimer activated (PDE4B1-S133D): 0.92 ± 0.21
- Hill Slope PDE4D7-S129(wt) dimer basal (PDE4D7-S129(wt)): 0.58 ± 0.11
- Hill Slope PDE4D3-S54D dimer activated (PDE4D3-S54D): 0.68 ± 0.14
- Hill Slope PDE4D2 monomer (PDE4D2): 0.60± 0.16
- Hill Slope PDE4D-cat monomer (PDE4D-cat): 1.2 ± 0.10
- remaining in liver microsomes ([2]; rat, mouse and dog liver microsomes, after 30 min incubation): 88-100%
- doses that significantly improved novel object discrimination (mice [3]; oral (PO), versus vehicle): above 0.3 mg/kg
- effect on anesthesia duration (mice [4]; doses of 3, 10 and 30 mg/kg PO): no significant effect
- change in anesthesia duration (mice [4]; doses up to 30 mg/kg): no change
- IC50 (PDE1-11): > 10 µM
- adverse CNS or pulmonary effects (rats [5]): no adverse CNS or pulmonary effects
- effect on cardiovascular function (dog): no effect
- dose range finding toxicology findings (rats [6]): inappetence and weight loss
- dose range finding toxicology findings (dogs): emesis, tremor and weight loss
- vascular toxicity and microscopic findings (rats and dogs): did not reveal vascular toxicity nor any other microscopic findings
- emesis (ferrets): did not cause emesis
- emesis (cynomolgus monkeys): nor did it cause emesis
- maturation of dendritic spines on layer 2/3 pyramidal cells (FMR1 knockout mice; FMR1 knockout mice): promotes
- behavior of adult FMR1 knockout mice (FMR1 knockout mice): normalizes
- potency in humanized PDE4D mice as compared to wild-type mice (humanized PDE4D mice): increased potency
- brain cAMP (humanized PDE4D mice; mice): increases
- late phase of hippocampal long-term potentiation (LTP) (humanized PDE4D mice; mice): augments
- phosphorylation of CREB (humanized PDE4D mice; mice): increases
- production of brain-derived neurotrophic factor (BDNF) in hippocampus (humanized PDE4D mice; mice): increases
- short and long term memory (humanized PDE4D mice; mice): improves
- mutagenicity in bacteria (bacteria): not mutagenic

- Hill Slope PDE4D7-S129D dimer activated (PDE4D7-S129D [1]): 0.66± 0.03
- Hill Slope PDE4B1-S133D dimer activated (PDE4B1-S133D): 0.37 ± 0.04
- Hill Slope PDE4D7-S129(wt) dimer basal (PDE4D7-S129(wt)): 0.50 ± 0.1
SMILES: CCc1cc(Cc2ccc(CC(=O)NCCO)cc2)nc(-c2cccc(Cl)c2)n1 [Compound 29, 2-(4-((2-(3-Chlorophenyl)-6-ethylpyrimidin-4-yl)methyl)phenyl)-N-(2-hydroxyethyl)acetamide]

SMILES: COc1ccc(C2CNC(=O)C2)cc1OC1CCCC1 (stereo not drawn) [rolipram, reference compound]
- dose that significantly improved novel object discrimination (mice [3]; SC): 0.1 mg/kg

- percentage of metabolite present [7]: <1%
- percentage of metabolite present [8]: 29.1%
SMILES: CCc1cc(Cc2ccc(CC(=O)O)cc2)nc(-c2cccc(Cl)c2)n1 [Compound M6]

- parent remaining in liver microsomes ([2]; dog, mouse, rat and monkey liver microsomes, at 30 min): 54-90%
- extended absorption (Pharmacokinetics in mice): 4 to 8 h
- shift in IC50 for PDE4D7-S129D inhibition in the presence of BSA (PDE4D7-S129D [9]): no shift
SMILES: CCc1cc(Cc2ccc(CC(N)=O)cc2)nc(-c2cccc(Cl)c2)n1 [Compound 23, 2-(4-((2-(3-Chlorophenyl)-6-ethylpyrimidin-4-yl)methyl)phenyl)acetamide]

From paper PMC7444661 (Journal of medicinal chemistry, 2019)
